# Reference: ChEMBL document CHEMBL6121006, “Marine natural product-inspired discovery of novel BRD4 inhibitors with anti-inflammatory activity” (Eur J Med Chem, 2025)
# Active and inactive are the calls of the source. No cut-off for these calls is given here.
# How the values were obtained:
# RAW264.7 [1] = assay: Anti-inflammatory activity in mouse RAW264.7 cells assessed as inhibition of LPS-induced IL-6 expression preincubated with compound for 2 hrs followed by LPS stimulation and measured after 6 hrs by RT-qPCR analysis; assay type: functional, cell-based; conditions: dose 2.5-20 µM, time 8.0 hrs
# [2] = biological target: Bromodomain-containing protein 2 (Homo sapiens) (UniProt P25440); assay: Inhibition of BRD2 BD1 (unknown origin) at 1 uM incubated for 2 hrs by TR-FRET assay relative to control
# Mus musculus = assay: Antiinflammatory activity against LPS-induced C57BL/6 mouse acute inflammation model assessed as decrease in number of interstitial vacuoles at 100 mg/kg, po pre-administered for 2 hrs followed by LPS stimulation for 6 hrs; assay type: functional, organism-based; conditions: time 8.0 hrs
# RAW264.7 [3] = assay: Anti-inflammatory activity in mouse RAW264.7 cells assessed as inhibition of LPS-induced IL-6 level preincubated with compound for 2 hrs followed by LPS stimulation and measured after 22 hrs by ELISA method; assay type: functional, cell-based; conditions: dose 2.5-20 µM, time 24.0 hrs
# [4] = biological target: Bromodomain-containing protein 4 (Homo sapiens, UniProt O60885); assay: Inhibition of human recombinant BRD4 BD1 (42 to 167 residues) extracted from Escherichia coli BL21 (DE3) at 10 uM incubated for 2 hrs by TR-FRET assay relative to control
# THP-1 = assay: Anti-inflammatory activity in human THP-1 cells assessed as inhibition of LPS-induced IL-6 expression preincubated with compound for 2 hrs followed by LPS stimulation and measured after 6 hrs by RT-qPCR analysis; assay type: functional, cell-based; conditions: dose 2.5-20 µM, time 8.0 hrs
# [5] = biological target: Bromodomain-containing protein 3 (Homo sapiens) (UniProt Q15059); assay: Inhibition of BRD3 BD1 (unknown origin) at 1 uM incubated for 2 hrs by TR-FRET assay relative to control
# Chain of Bromodomain-containing protein 3 (Homo sapiens) (Q15059 2-726 limits assumed): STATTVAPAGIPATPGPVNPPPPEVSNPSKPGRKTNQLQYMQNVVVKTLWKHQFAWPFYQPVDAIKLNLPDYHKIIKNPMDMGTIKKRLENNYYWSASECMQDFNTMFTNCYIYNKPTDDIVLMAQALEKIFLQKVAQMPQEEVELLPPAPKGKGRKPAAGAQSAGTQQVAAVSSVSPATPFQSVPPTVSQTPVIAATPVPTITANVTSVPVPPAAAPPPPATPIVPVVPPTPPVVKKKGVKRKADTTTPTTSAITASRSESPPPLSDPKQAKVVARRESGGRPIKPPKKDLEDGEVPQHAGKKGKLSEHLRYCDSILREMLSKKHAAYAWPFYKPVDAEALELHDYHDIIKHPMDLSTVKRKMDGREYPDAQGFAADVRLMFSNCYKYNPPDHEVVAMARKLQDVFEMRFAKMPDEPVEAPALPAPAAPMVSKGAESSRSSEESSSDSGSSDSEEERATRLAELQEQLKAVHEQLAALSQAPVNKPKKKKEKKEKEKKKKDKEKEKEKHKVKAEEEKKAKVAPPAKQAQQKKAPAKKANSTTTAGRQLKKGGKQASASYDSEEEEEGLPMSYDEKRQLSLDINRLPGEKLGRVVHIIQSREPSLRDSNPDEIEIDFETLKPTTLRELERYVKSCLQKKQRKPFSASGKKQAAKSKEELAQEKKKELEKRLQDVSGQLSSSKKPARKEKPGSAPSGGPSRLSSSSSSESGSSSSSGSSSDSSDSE
# Chain of Bromodomain-containing protein 2 (Homo sapiens) (P25440 whole entry, looked up): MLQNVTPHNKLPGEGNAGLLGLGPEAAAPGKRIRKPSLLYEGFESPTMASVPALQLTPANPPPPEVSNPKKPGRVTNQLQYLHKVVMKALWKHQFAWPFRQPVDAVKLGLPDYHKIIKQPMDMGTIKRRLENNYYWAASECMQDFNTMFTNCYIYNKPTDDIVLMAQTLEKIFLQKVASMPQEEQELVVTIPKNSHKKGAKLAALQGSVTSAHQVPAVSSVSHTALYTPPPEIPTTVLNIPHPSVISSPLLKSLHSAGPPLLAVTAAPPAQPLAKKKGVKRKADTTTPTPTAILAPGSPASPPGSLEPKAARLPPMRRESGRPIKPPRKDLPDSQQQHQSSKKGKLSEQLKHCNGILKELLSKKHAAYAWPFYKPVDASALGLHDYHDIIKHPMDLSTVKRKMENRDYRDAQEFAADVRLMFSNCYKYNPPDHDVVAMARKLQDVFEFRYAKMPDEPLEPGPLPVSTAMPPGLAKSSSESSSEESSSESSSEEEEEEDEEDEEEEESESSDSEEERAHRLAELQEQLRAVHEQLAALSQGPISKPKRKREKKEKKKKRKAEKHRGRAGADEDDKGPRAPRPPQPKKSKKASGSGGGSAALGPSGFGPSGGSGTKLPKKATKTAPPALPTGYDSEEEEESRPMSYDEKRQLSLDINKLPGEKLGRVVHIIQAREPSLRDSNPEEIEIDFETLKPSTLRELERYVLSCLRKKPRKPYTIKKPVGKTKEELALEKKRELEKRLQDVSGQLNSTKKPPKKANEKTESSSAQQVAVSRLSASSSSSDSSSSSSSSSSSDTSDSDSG
smiles,measurement,setting,value
COc1ccc(/C=C/c2nc3cc(OC)cc(OC)c3c(=O)[nH]2)cc1,Activity,RAW264.7 [1],Dose-dependent-effect
same,inhibition,[2],24%
same,Activity,Mus musculus,Active
same,Activity,RAW264.7 [3],Dose-dependent-effect
same,inhibition,[4],81%
same,Activity,THP-1,Dose-dependent-effect
same,inhibition,[5],25%
